Results from paper PMC10692473 (Acta Pharmaceutica Sinica. B, 2023).
Converted amounts (≈) assume the structure as drawn.

Columns and labels:
S. aureus gyrase = S. aureus gyrase (Staphylococcus aureus, UniProt P0A0K8); experiment: Gyrase inhibitory assay; assay type: biochemical
S. aureus (ATCC29213) = experiment: Antibacterial assay; conditions: Staphylococcus aureus, ATCC29213, read-out: MIC S. aureus (ATCC29213)
E. coli (ATCC25922) = experiment: Antibacterial assay; conditions: Escherichia coli, ATCC25922, read-out: MIC E. coli (ATCC25922)
E. coli gyrase = E. coli gyrase (Escherichia coli, UniProt P0AES6); experiment: Gyrase inhibitory assay; assay type: biochemical
S. aureus Topo IV = S. aureus Topo IV (Staphylococcus aureus, UniProt P0C1S7); experiment: Topo IV inhibitory assay; assay type: biochemical
[1] = tested on: methicillin-resistant S. aureus (ATCC43300); experiment: Mouse model of sepsis induced by MRSA; assay type: in vivo, ICR mice; conditions: 10 mg/kg ig, MRSA ATCC43300, observed 7 days

Sequence of S. aureus gyrase (P0A0K8 whole entry): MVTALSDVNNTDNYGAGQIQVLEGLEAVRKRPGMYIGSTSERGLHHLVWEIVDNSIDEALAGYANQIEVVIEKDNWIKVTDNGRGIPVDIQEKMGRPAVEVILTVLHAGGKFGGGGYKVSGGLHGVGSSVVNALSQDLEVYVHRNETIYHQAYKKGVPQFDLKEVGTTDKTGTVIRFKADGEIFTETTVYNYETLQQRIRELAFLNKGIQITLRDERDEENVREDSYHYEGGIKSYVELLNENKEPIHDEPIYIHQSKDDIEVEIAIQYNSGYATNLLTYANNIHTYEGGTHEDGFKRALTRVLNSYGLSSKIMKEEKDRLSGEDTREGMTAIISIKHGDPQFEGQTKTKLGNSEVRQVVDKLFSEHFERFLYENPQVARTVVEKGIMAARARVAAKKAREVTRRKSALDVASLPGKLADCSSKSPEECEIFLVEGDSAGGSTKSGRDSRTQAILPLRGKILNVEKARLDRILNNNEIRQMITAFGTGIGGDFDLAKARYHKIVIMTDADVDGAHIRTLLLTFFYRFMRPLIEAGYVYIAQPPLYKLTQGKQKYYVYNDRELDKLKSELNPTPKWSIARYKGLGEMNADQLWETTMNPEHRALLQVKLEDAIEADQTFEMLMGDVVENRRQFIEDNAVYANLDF
Sequence of S. aureus gyrase (P20831 whole entry partner): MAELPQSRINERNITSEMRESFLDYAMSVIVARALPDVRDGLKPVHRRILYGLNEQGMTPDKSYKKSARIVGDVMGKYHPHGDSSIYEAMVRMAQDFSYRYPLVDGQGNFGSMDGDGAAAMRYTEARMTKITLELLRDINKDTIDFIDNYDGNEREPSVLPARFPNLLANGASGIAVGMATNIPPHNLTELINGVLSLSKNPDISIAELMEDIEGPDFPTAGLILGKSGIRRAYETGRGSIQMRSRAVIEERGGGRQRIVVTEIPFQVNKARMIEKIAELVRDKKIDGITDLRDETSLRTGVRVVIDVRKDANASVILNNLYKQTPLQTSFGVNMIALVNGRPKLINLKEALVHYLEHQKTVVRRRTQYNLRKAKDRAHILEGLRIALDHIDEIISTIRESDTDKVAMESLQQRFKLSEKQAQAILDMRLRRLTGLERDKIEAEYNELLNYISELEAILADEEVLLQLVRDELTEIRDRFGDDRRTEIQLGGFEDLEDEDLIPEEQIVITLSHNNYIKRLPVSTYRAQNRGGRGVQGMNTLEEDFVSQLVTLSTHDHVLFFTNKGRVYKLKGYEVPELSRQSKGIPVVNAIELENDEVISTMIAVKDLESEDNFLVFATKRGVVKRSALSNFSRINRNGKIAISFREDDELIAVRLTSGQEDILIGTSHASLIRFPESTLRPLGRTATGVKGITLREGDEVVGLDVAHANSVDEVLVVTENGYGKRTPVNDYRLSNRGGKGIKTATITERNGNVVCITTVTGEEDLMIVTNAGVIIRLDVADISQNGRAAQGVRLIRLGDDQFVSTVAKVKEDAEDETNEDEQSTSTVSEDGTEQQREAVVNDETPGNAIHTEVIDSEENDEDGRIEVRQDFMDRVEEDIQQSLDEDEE
Sequence of S. aureus Topo IV (P0C1S7 whole entry): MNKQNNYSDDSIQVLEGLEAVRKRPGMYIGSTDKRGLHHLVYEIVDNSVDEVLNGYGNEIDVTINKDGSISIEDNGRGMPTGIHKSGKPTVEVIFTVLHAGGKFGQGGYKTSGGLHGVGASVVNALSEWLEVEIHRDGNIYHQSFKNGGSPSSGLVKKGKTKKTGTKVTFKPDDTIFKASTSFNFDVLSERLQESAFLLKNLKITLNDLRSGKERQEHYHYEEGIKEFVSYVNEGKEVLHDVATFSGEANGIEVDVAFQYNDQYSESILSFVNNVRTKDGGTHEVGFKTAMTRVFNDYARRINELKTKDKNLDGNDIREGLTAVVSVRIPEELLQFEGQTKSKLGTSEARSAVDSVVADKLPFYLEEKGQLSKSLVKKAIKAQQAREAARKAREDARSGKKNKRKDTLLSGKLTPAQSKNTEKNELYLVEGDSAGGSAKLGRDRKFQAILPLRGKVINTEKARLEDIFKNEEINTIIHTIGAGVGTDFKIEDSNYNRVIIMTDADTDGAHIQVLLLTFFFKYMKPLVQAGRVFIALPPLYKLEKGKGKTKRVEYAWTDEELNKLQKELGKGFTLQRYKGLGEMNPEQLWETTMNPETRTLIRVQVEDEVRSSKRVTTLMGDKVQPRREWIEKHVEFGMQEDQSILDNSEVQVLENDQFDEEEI
Sequence of S. aureus Topo IV (P0C1U9 whole entry partner): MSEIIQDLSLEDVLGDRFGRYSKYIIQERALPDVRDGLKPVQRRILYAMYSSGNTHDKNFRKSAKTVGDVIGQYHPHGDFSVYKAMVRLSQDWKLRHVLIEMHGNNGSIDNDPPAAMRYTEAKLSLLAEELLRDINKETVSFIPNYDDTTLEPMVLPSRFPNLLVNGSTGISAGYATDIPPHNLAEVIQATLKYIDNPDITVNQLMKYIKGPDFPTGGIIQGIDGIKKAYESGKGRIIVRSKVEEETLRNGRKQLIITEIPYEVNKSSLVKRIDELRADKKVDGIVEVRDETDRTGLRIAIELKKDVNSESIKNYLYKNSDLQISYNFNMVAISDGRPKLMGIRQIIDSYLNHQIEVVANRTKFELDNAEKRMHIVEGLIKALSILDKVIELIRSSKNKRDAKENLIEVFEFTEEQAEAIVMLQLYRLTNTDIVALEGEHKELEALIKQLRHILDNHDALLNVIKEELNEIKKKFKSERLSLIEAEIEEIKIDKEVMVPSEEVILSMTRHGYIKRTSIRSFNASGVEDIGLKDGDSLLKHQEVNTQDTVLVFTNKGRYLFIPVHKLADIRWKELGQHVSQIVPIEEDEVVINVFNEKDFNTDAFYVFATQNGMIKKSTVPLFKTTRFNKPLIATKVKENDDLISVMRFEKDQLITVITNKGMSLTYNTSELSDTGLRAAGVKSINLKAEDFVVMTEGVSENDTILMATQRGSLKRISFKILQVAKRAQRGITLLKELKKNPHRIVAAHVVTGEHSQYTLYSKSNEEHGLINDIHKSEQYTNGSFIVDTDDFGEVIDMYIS

Compound: CO[C@H]1CN(c2ccc(-c3nn[nH]n3)nn2)CC[C@H]1NC(=O)c1[nH]c(C)c(Cl)c1Cl [Compound 36, N-((3S,4R)-1-(6-(2H-Tetrazol-5-yl)pyridazin-3-yl)-3-methoxypiperidin-4-yl)-3,4-dichloro-5-methyl-1H-pyrrole-2-carboxamide]
- IC50 (S. aureus gyrase): > 10000 nM
- MIC (S. aureus (ATCC29213)): 0.5 µg/mL (≈ 1.11 µM)
- MIC (E. coli (ATCC25922)): 16 µg/mL (≈ 35.4 µM)
- IC50 (E. coli gyrase): > 10 µM

Compound: CO/N=C(\C)c1ccc(N2CC[C@@H](NC(=O)c3[nH]c(C)c(Cl)c3Cl)[C@@H](OC)C2)nn1 [Compound 24, 3,4-Dichloro-N-((3S,4R)-3-methoxy-1-(6-((E)-1-(methoxyimino)ethyl)pyridazin-3-yl)piperidin-4-yl)-5-methyl-1H-pyrrole-2-carboxamide]
- IC50 (S. aureus gyrase): 2070 ± 568 nM
- MIC (S. aureus (ATCC29213)): 0.03 µg/mL (≈ 0.0659 µM)
- MIC (E. coli (ATCC25922)): > 128 µg/mL
- IC50 (E. coli gyrase): > 10 µM

Compound: CO[C@H]1CN(c2ccc(C(=O)NCCN)nn2)CC[C@H]1NC(=O)c1[nH]c(C)c(Cl)c1Cl [Compound 32, N-(2-Aminoethyl)-6-((3S,4R)-4-(3,4-dichloro-5-methyl-1H-pyrrole-2-carboxamido)-3-methoxypiperidin-1-yl)pyridazine-3-carboxamide]
- IC50 (S. aureus gyrase): > 10000 nM
- MIC (S. aureus (ATCC29213)): 32 µg/mL (≈ 68 µM)
- MIC (E. coli (ATCC25922)): 64 µg/mL (≈ 136 µM)
- IC50 (E. coli gyrase): > 10 µM

Compound: CCOC(=O)c1nnc(N2CC[C@@H](NC(=O)c3[nH]c(C)c(Cl)c3Cl)[C@@H](OC)C2)s1 [Compound 10, Ethyl 5-((3S,4R)-4-(3,4-dichloro-5-methyl-1H-pyrrole-2-carboxamido)-3-methoxy-piperidin-1-yl)-1,3,4-thiadiazole-2-carboxylate]
- IC50 (S. aureus gyrase): 137 ± 13 nM
- MIC (S. aureus (ATCC29213)): 0.125 µg/mL (≈ 0.27 µM)
- MIC (E. coli (ATCC25922)): 16 µg/mL (≈ 34.6 µM)
- IC50 (E. coli gyrase): 6.87 ± 1.22 µM

Compound: CO[C@H]1CN(c2ccc(F)nn2)CC[C@H]1NC(=O)c1[nH]c(C)c(Cl)c1Cl [Compound 17, 3,4-Dichloro-N-((3S,4R)-1-(6-fluoropyridazin-3-yl)-3-methoxypiperidin-4-yl)-5-methyl-1H-pyrrole-2-carboxamide]
- IC50 (S. aureus gyrase): 84 ± 37 nM
- MIC (S. aureus (ATCC29213)): 0.25 µg/mL (≈ 0.621 µM)
- MIC (E. coli (ATCC25922)): 16 µg/mL (≈ 39.8 µM)
- IC50 (E. coli gyrase): 8.21 ± 1.21 µM

Compound: CCNC(=O)c1ccc(N2CC[C@@H](NC(=O)c3[nH]c(C)c(Cl)c3Cl)[C@@H](OC)C2)nn1 [Compound 31, 6-((3S,4R)-4-(3,4-Dichloro-5-methyl-1H-pyrrole-2-carboxamido)-3-methoxypiperidin-1-yl)-N-ethylpyridazine-3-carboxamide]
- IC50 (S. aureus gyrase): 576 ± 45 nM
- MIC (S. aureus (ATCC29213)): 0.125 µg/mL (≈ 0.275 µM)
- MIC (E. coli (ATCC25922)): > 128 µg/mL
- IC50 (E. coli gyrase): > 10 µM

Compound: CO[C@H]1CN(c2ccc(/C(C)=N/OCC(=O)O)nn2)CC[C@H]1NC(=O)c1[nH]c(C)c(Cl)c1Cl [Compound 25, 2-((((E)-1-(6-((3S,4R)-4-(3,4-Dichloro-5-methyl-1H-pyrrole-2-carboxamido)-3-methoxypiperidin-1-yl)pyridazine-3-yl)ethylidene)amino)oxy)acetic acid]
- IC50 (S. aureus gyrase): 172 ± 56 nM
- MIC (S. aureus (ATCC29213)): 0.25 µg/mL (≈ 0.501 µM)
- MIC (E. coli (ATCC25922)): > 128 µg/mL
- IC50 (E. coli gyrase): > 10 µM

Compound: COC(=O)c1cnc(N2CC[C@@H](NC(=O)c3[nH]c(C)c(Cl)c3Cl)[C@@H](OC)C2)cn1 [Compound 13, Methyl-5-((3S,4R)-4-(3,4-dichloro-5-methyl-1H-pyrrole-2-carboxamido)-3-methoxypiperidin-1-yl)pyrazine-2-carboxylate]
- IC50 (S. aureus gyrase): > 10000 nM
- MIC (S. aureus (ATCC29213)): > 128 µg/mL
- MIC (E. coli (ATCC25922)): > 128 µg/mL
- IC50 (E. coli gyrase): > 10 µM

Compound: CCOC(=O)c1cnc(N2CC[C@@H](NC(=O)c3[nH]c(C)c(Cl)c3Cl)[C@@H](OC)C2)nc1 [Compound 12, Ethyl 2-((3S,4R)-4-(3,4-dichloro-5-methyl-1H-pyrrole-2-carboxamido)-3-methoxy-piperidin-1-yl)pyrimidine-5-carboxylate]
- IC50 (S. aureus gyrase): 4870 ± 20 nM
- MIC (S. aureus (ATCC29213)): 0.125 µg/mL (≈ 0.274 µM)
- MIC (E. coli (ATCC25922)): > 128 µg/mL
- IC50 (E. coli gyrase): > 10 µM

Compound: CO[C@H]1CN(c2ccc(C#N)nn2)CC[C@H]1NC(=O)c1[nH]c(C)c(Cl)c1Cl [Compound 20, 3,4-Dichloro-N-((3S,4R)-1-(6-cyanopyridazin-3-yl)-3-methoxypiperidin-4-yl)-5-methyl-1H-pyrrole-2-carboxamide]
- IC50 (S. aureus gyrase): 701 ± 248 nM
- MIC (S. aureus (ATCC29213)): 0.06 µg/mL (≈ 0.147 µM)
- MIC (E. coli (ATCC25922)): > 128 µg/mL
- IC50 (E. coli gyrase): > 10 µM

Compound: CO[C@H]1CN(c2ccc(Br)nn2)CC[C@H]1NC(=O)c1[nH]c(C)c(Cl)c1Cl [Compound 18, N-((3S,4R)-1-(6-Bromopyridazin-3-yl)-3-methoxypiperidin-4-yl)-3,4-dichloro-5-methyl-1H-pyrrole-2-carboxamide]
- IC50 (S. aureus gyrase): 130 ± 17 nM
- MIC (S. aureus (ATCC29213)): 0.03 µg/mL (≈ 0.0648 µM)
- MIC (E. coli (ATCC25922)): 4 µg/mL (≈ 8.64 µM)
- IC50 (E. coli gyrase): 7.42 ± 1.01 µM

Compound: CO[C@@H]1[C@@H](OC(N)=O)[C@@H](O)[C@H](Oc2ccc3c(O)c(NC(=O)c4ccc(O)c(CC=C(C)C)c4)c(=O)oc3c2C)OC1(C)C [novobiocin (1), novobiocin, reference compound]
- MIC (S. aureus (ATCC29213)): 0.5 µg/mL (≈ 0.816 µM)
- IC50 (S. aureus Topo IV): 383 ± 120 nM
- MIC (E. coli (ATCC25922)): 128 µg/mL (≈ 209 µM)

Compound: CO[C@H]1CN(c2ccc(/C(C)=N/O)nn2)CC[C@H]1NC(=O)c1[nH]c(C)c(Cl)c1Cl [Compound 23, 3,4-Dichloro-N-((3S,4R)-1-(6-((E)-1-(hydroxyimino)ethyl)pyridazin-3-yl)-3-methoxypiperidin-4-yl)-5-methyl-1H-pyrrole-2-carboxamide]
- IC50 (S. aureus gyrase): 1490 ± 234 nM
- protective effect / survival in mouse model of sepsis [1]: weak protective effects
- MIC (S. aureus (ATCC29213)): ≤ 0.015 µg/mL
- MIC (E. coli (ATCC25922)): 1 µg/mL (≈ 2.27 µM)
- IC50 (E. coli gyrase): 2.56 µM

Compound: CO[C@H]1CN(c2ccc(CO)nn2)CC[C@H]1NC(=O)c1[nH]c(C)c(Cl)c1Cl [Compound 27, 3,4-Dichloro-N-((3S,4R)-1-(6-(hydroxymethyl)pyridazin-3-yl)-3-methoxypiperidin-4-yl)-5-methyl-1H-pyrrole-2-carboxamide]
- IC50 (S. aureus gyrase): 94 ± 40 nM
- MIC (S. aureus (ATCC29213)): 0.03 µg/mL (≈ 0.0724 µM)
- MIC (E. coli (ATCC25922)): 4 µg/mL (≈ 9.66 µM)
- IC50 (E. coli gyrase): 5.11 ± 0.545 µM

Compound: CO[C@H]1CN(c2ccc(C(F)(F)F)nn2)CC[C@H]1NC(=O)c1[nH]c(C)c(Cl)c1Cl [Compound 19, 3,4-Dichloro-N-((3S,4R)-3-methoxy-1-(6-(trifluoromethyl)pyridazin-3-yl)piperidin-4-yl)-5-methyl-1H-pyrrole-2-carboxamide]
- IC50 (S. aureus gyrase): 120 ± 47 nM
- MIC (S. aureus (ATCC29213)): 0.03 µg/mL (≈ 0.0663 µM)
- MIC (E. coli (ATCC25922)): 16 µg/mL (≈ 35.4 µM)
- IC50 (E. coli gyrase): 9.31 ± 0.923 µM

Compound: COC(=O)c1cnc(N2CC[C@@H](NC(=O)c3[nH]c(C)c(Cl)c3Cl)[C@@H](OC)C2)s1 [Compound 9, Methyl 2-((3S,4R)-4-(3,4-dichloro-5-methyl-1H-pyrrole-2-carboxamido)-3-methoxypiperidin-1-yl)thiazole-5-carboxylate]
- IC50 (S. aureus gyrase): 1450 ± 111 nM
- MIC (S. aureus (ATCC29213)): 0.125 µg/mL (≈ 0.279 µM)
- MIC (E. coli (ATCC25922)): > 128 µg/mL
- IC50 (E. coli gyrase): > 10 µM

Compound: CO[C@H]1CN(c2ccc(C(=O)N3CCNCC3)nn2)CC[C@H]1NC(=O)c1[nH]c(C)c(Cl)c1Cl [Compound 33, 3,4-Dichloro-N-((3S,4R)-3-methoxy-1-(6-(piperazine-1-carbonyl)pyridazin-3-yl)piperidin-4-yl)-5-methyl-1H-pyrrole-2-carboxamide]
- IC50 (S. aureus gyrase): 1090 ± 146 nM
- MIC (S. aureus (ATCC29213)): 0.25 µg/mL (≈ 0.504 µM)
- MIC (E. coli (ATCC25922)): 32 µg/mL (≈ 64.5 µM)
- IC50 (E. coli gyrase): > 10 µM

Compound: CCOC(=O)c1nnc(N2CC[C@@H](NC(=O)c3[nH]c(C)c(Cl)c3Cl)[C@@H](OC)C2)o1 [Compound 16, Ethyl-5-((3S,4R)-4-(3,4-dichloro-5-methyl-1H-pyrrole-2-carboxamido)-3-methoxypiperidin-1-yl)-1,3,4-oxadiazole-2-carboxylate]
- IC50 (S. aureus gyrase): 2340 nM
- MIC (S. aureus (ATCC29213)): 0.5 µg/mL (≈ 1.12 µM)
- MIC (E. coli (ATCC25922)): 128 µg/mL (≈ 287 µM)
- IC50 (E. coli gyrase): > 10 µM

Compound: CO[C@H]1CN(c2ccc(C(=N)N)nn2)CC[C@H]1NC(=O)c1[nH]c(C)c(Cl)c1Cl [Compound 35, N-((3S,4R)-1-(6-Carbamimidoylpyridazin-3-yl)-3-methoxypiperidin-4-yl)-3,4-dichloro-5-methyl-1H-pyrrole-2-carboxamide]
- IC50 (S. aureus gyrase): > 10000 nM
- MIC (S. aureus (ATCC29213)): 32 µg/mL (≈ 75.1 µM)
- MIC (E. coli (ATCC25922)): > 128 µg/mL
- IC50 (E. coli gyrase): > 10 µM

Compound: COC(=O)c1ccc(N2CC[C@@H](NC(=O)c3[nH]c(C)c(Cl)c3Cl)[C@@H](OC)C2)nc1 [Compound 11, Methyl 6-((3S,4R)-4-(3,4-dichloro-5-methyl-1H-pyrrole-2-carboxamido)-3-methoxy-piperidin-1-yl)nicotinate]
- IC50 (S. aureus gyrase): 3350 ± 154 nM
- MIC (S. aureus (ATCC29213)): 1 µg/mL (≈ 2.27 µM)
- MIC (E. coli (ATCC25922)): > 128 µg/mL
- IC50 (E. coli gyrase): > 10 µM

Compound: CNC(=O)c1ccc(N2CC[C@@H](NC(=O)c3[nH]c(C)c(Cl)c3Cl)[C@@H](OC)C2)nn1 [Compound 30, 6-((3S,4R)-4-(3,4-Dichloro-5-methyl-1H-pyrrole-2-carboxamido)-3-methoxypiperidin-1-yl)-N-methylpyridazine-3-carboxamide]
- IC50 (S. aureus gyrase): 696 ± 56 nM
- MIC (S. aureus (ATCC29213)): 0.125 µg/mL (≈ 0.283 µM)
- MIC (E. coli (ATCC25922)): 16 µg/mL (≈ 36.3 µM)
- IC50 (E. coli gyrase): > 10 µM

Compound: CO[C@H]1CN(c2ccc(C(C)=O)nn2)CC[C@H]1NC(=O)c1[nH]c(C)c(Cl)c1Cl [Compound 21, N-((3S,4R)-1-(6-Acetylpyridazin-3-yl)-3-methoxypiperidin-4-yl)-3,4-dichloro-5-methyl-1H-pyrrole-2-carboxamide]
- IC50 (S. aureus gyrase): 825 ± 303 nM
- MIC (S. aureus (ATCC29213)): 0.06 µg/mL (≈ 0.141 µM)
- MIC (E. coli (ATCC25922)): > 128 µg/mL
- IC50 (E. coli gyrase): > 10 µM

Compound: CO[C@H]1CN(c2ccc(CN)nn2)CC[C@H]1NC(=O)c1[nH]c(C)c(Cl)c1Cl [Compound 34, N-((3S,4R)-1-(6-(Aminomethyl)pyridazin-3-yl)-3-methoxypiperidin-4-yl)-3,4-dichloro-5-methyl-1H-pyrrole-2-carboxamide]
- IC50 (S. aureus gyrase): > 10000 nM
- MIC (S. aureus (ATCC29213)): 32 µg/mL (≈ 77.4 µM)
- MIC (E. coli (ATCC25922)): > 128 µg/mL
- IC50 (E. coli gyrase): > 10 µM
